For test [1], the target named is T1, human plasma kallikrein (Homo sapiens, UniProt P03952).
T1 construct: purchased Stratech, UK
The experiment in a line: Functional enzyme assay, inhibition of human plasma kallikrein (Z-PheArg-AMC substrate). It counts as biochemical. The method, then:
(§1) Functional enzyme assays were conducted in 10 mM Tris HCl, 150 mM NaCl, 10 mM MgCl2, 1 mM CaCl2 and 1 mg/mL BSA (all Sigma UK) pH 7.4 at 25° C. in solid black 96 or 384 well plates. […] Release of AMC was measured using a Pherastar FS (BMG Labtech), excitation 360 nm, emission 460 nm. The rate of the linear phase of the reaction, typically 5 to 45 minutes, was calculated in MARS data analysis software (BMG labtech). The rate was then used to calculate the IC50 and Ki in Prism (GraphPad). A four parameter inhibition non-linear regression equation was used to calculate the IC50. […]
(§2) Peptides were dissolved as the TFA-salts in their powder form, and stock solutions were usually prepared in water. All solutions were centrifuged and filtered ([…] syringe filters) prior to absorption measurement at 280 nm. Extinction coefficients were calculated based on the Trp/Tyr content of the peptide, and that of TMB (the TMB core, when contained in a peptide, has an extinction coefficient of ˜300 M^−1 cm^−1).

The target of test [2] is rabbit kallikrein (Oryctolagus cuniculus, UniProt G1T127). Kind of test: Functional enzyme assay, inhibition of rabbit kallikrein. The test is classed as biochemical. The procedure:
as §1, §2

Our source for the Ki values is US10894808B2, “Polypeptide ligands specific for plasma kallikrein” (BicycleRD Limited, priority 2013, dated 2021).

Where two headings read alike, the source gives them in different places. *1 amine or outer side, *2 acyl side, *3 side chain or, on linkers, in order; H or OH if unused. Where a SMILES comes first, the peptide text is derived from it. Bridges are numbered along the chain shown (N, C = ends). [ ]: non-standard residue; d: D form. TBMB = c1c(C[*:1])cc(C[*:3])cc1C[*:2]; hArg = N=C(N)NCCCC[C@H](N)C(=O)O; Aze = O=C(O)[C@@H]1CCN1; Sar = CNCC(=O)O

T1 sequence (P03952 391-638 limits assumed): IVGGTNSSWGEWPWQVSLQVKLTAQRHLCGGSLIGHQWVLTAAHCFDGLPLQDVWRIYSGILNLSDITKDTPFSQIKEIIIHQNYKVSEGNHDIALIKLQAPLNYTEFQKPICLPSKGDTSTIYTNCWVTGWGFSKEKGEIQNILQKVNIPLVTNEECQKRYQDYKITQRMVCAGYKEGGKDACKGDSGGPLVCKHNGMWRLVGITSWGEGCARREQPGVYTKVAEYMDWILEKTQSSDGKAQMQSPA
T1 sequence (P03952 20-390 partner limits assumed): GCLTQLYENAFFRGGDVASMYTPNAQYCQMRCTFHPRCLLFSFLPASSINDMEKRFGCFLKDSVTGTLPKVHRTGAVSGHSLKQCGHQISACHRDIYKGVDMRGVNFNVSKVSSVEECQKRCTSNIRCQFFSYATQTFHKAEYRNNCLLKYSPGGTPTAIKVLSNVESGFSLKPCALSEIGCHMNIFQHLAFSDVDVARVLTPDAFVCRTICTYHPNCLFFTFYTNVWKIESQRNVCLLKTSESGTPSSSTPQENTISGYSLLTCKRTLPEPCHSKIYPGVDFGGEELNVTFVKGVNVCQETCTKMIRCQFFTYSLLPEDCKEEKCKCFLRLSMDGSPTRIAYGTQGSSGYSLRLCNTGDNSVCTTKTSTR
Sequence of rabbit kallikrein (G1T127 20-629): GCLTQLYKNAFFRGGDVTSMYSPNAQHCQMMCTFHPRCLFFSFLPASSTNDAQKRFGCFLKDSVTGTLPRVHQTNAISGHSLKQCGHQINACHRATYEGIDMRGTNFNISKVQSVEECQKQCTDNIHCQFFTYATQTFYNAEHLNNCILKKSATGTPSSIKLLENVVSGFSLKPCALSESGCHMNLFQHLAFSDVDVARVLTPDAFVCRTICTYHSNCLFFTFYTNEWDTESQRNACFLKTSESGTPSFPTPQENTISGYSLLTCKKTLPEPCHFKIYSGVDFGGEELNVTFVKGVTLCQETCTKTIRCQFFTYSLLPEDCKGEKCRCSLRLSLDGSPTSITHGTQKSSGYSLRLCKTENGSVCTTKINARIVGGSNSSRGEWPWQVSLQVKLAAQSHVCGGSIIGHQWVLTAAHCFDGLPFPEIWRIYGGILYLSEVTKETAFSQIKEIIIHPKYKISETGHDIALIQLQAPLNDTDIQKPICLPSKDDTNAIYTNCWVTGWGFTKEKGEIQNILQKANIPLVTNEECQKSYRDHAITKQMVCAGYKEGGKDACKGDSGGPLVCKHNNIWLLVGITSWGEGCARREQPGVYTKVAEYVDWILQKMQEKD

The Ki is a dissociation constant, usually derived from enzyme kinetics or from competition with a known ligand. For the compound `CC(C)C[C@@H]1NC(=O)[C@@H]2CCCN2C(=O)[C@H](C)NC(=O)[C@H](CC(=O)O)NC(=O)[C@H](Cc2c[nH]c3ccccc23)NC(=O)[C@@H]2CCCN2C(=O)[C@@H]2CSCc3cc(cc(c3)CSC[C@@H](C(=O)N[C@@H](C)C(N)=O)NC1=O)CSC[C@H](NC(=O)[C@H](C)N)C(=O)N[C@@H](CC(N)=O)C(=O)N[C@@H](Cc1ccc(O)cc1)C(=O)N[C@@H](Cc1c[nH]c3ccccc13)C(=O)N[C@@H](CC(N)=O)C(=O)N1CCC[C@H]1C(=O)N[C@@H](Cc1c[nH]c3ccccc13)C(=O)N2` [06-259-04] (H-ACNYWNPWCPWDAPLCA-NH2; linker 2-9-16 via TBMB; N-terminus assumed), the Ki in test [1] (Table 5, read-out: Human (Ki)) came to 3.4 nM.
Compound `CC[C@H](C)[C@@H]1NC(=O)[C@H](CC(C)C)NC(=O)[C@H]([C@@H](C)O)NC(=O)[C@@H]2CSCc3cc(cc(c3)CSC[C@@H](C(=O)N[C@@H](C)C(=O)N(C)CC(=O)N(C)CC(=O)N(C)CC(=O)N[C@H](CCCNC(=N)N)C(=O)N[C@H](CCCNC(=N)N)C(N)=O)NC(=O)[C@H]([C@@H](C)O)NC(=O)[C@H]([C@@H](C)CC)NC(=O)[C@H](CC(N)=O)NC1=O)CSC[C@H](NC(C)=O)C(=O)N[C@@H](CCCNC(=N)N)C(=O)N[C@@H](CC(N)=O)C(=O)N[C@@H](Cc1ccc(O)cc1)C(=O)N[C@@H](Cc1c[nH]c3ccccc13)C(=O)N[C@@H](CC(N)=O)C(=O)N1CCC[C@H]1C(=O)N2` [Ac-(06-255)-Sar3-(DArg2)] (Ac-CRNYWNPCTLINITCA[Sar][Sar][Sar][dR][dR]-NH2; linker 1-8-15 via TBMB) displayed a Ki in test [1] of 1.2 nM.
Compound `CC[C@H](C)[C@@H]1NC(=O)[C@H](CC(C)C)NC(=O)[C@H]([C@@H](C)O)NC(=O)[C@@H]2CSCc3cc(cc(c3)CSC[C@H](NC(C)=O)C(=O)N[C@@H](CCCNC(=N)N)C(=O)N[C@@H](CC(N)=O)C(=O)N[C@@H](Cc3ccc(O)cc3)C(=O)N[C@@H](Cc3c[nH]c4ccccc34)C(=O)N[C@@H](CC(N)=O)C(=O)N3CCC[C@H]3C(=O)N2)CSC[C@@H](C(N)=O)NC(=O)[C@H]([C@@H](C)O)NC(=O)[C@H]([C@@H](C)CC)NC(=O)[C@H](CC(N)=O)NC1=O` [Ac-(06-255)] (Ac-CRNYWNPCTLINITC-NH2; linker 1-8-15 via TBMB; C-terminus assumed) yielded a Ki in test [2] of 342 nM.
`CC[C@H](C)[C@@H]1NC(=O)[C@H](CC(=O)O)NC(=O)[C@@H]2CCCN2C(=O)[C@H](Cc2ccc(O)cc2)NC(=O)[C@H](Cc2ccc(O)cc2)NC(=O)[C@H](C(C)C)NC(=O)[C@@H]2CSCc3cc(cc(c3)CSC[C@H](NC(C)=O)C(=O)N[C@@H](CO)C(=O)N[C@@H](Cc3ccccc3)C(=O)N3CC[C@H]3C(=O)N[C@@H](Cc3ccc(O)cc3)C(=O)N[C@@H](CCCCNC(=N)N)C(=O)N2)CSC[C@@H](C(N)=O)NC1=O` [Ac-(06-550) Aze3 HArg5] (Ac-CSF[Aze]Y[hArg]CVYYPDIC-NH2; linker 1-7-14 via TBMB): affinity in test [1] was put at a Ki of 0.5 nM.
